Values quoted from earlier work in patent US11325944B2 (priority 2017, dated 2022).
[ ]: non-standard residue; d: D form.

Columns and labels:
[1] = system: KOR
[2] = biological target: DOR; details: δ opioid receptor, CHO cell membranes; read-out: Kd of radioligand
[3] = biological target: KOR (Homo sapiens, UniProt P41145)
KOR (Homo sapiens, UniProt P41145), sequence (P41145 whole entry): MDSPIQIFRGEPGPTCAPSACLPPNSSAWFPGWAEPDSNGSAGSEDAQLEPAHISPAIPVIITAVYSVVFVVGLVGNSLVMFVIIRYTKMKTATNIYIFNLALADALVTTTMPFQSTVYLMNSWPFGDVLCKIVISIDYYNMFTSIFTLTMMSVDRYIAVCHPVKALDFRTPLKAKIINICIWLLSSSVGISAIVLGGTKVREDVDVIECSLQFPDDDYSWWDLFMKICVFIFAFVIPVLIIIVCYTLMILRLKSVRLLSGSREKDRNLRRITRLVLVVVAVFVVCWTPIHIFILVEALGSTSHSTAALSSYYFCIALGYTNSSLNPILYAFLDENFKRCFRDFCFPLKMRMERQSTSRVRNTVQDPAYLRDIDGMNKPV

cyclo [CJ-15,208, cyclo [Phe-D-Pro-Phe-Trp]]
agonist (antinociceptive) activity in vivo [1]: mild agonist (antinociceptive) activity

cyclo[D-Pen^2, D-Pen]enkephalin [[^3H]-DPDPE]
Kd [2]: 1.76 nM

cyclo(F[dP]F[dW]) [[D-Trp]CJ-15,208]
KOR antagonism ([1]; in vivo): exhibited KOR antagonism
selectivity for KOR over MOR and DOR [3]: selective activity against the kappa opioid receptor (KOR) over mu opioid receptors (MOR) and delta opioid receptors (DOR)
KOR antagonism in vitro ([3]; in vitro): antagonize KOR in vitro
